Target: DNA-PK (Homo sapiens, UniProt P78527)
Assay: DNA-PK inhibition assay (radiometric 33P-ATP kinase assay)
Assay type: biochemical
Conditions: 100 μM ATP; competitive tight-binding fit
Method: Compounds were screened for their ability to inhibit DNA-PK kinase using a standard radiometric assay. Briefly, in this kinase assay the transfer of the terminal ^33P-phosphate in ^33P-ATP to a peptide substrate is interrogated. The assay was carried out in 384-well plates to a final volume of 50 μL per well containing approximately 6 nM DNA-PK, 50 mM HEPES (pH 7.5), 10 mM MgCl2, 25 mM NaCl, 0.01% BSA, 1 mM DTT, 10 μg/mL sheared double-stranded DNA (obtained from Sigma), 0.8 mg/mL DNA-PK peptide ([…] obtained from American Peptide), and 100 μM ATP. Accordingly, compounds of the invention were dissolved in DMSO to make 10 mM initial stock solutions. Serial dilutions in DMSO were then made to obtain the final solutions for the assay. A 0.75 μL aliquot of DMSO or inhibitor in DMSO was added to each well, followed by the addition of ATP substrate solution containing ^33P-ATP (obtained from Perkin Elmer). The reaction was started by the addition of DNA-PK, peptide and ds-DNA. After 45 min. the reaction was quenched with 25 μL of 5% phosphoric acid. The reaction mixture was transferred to MultiScreen HTS 384-well PH plates (obtained from Millipore), allowed to bind for one hour, and washed three times with 1% phosphoric acid. Following the addition of 50 μL of Ultima Gold™ high efficiency scintillant (obtained from Perkin Elmer), the samples were counted in a Packard TopCount NXT Microplate Scintillation and Luminescence Counter (Packard BioScience). The Ki values were calculated using Microsoft Excel Solver macros to fit the data to the kinetic model for competitive tight-binding inhibition.

SMILES | Ki [nM]
Cc1ccc(-c2cc(NC[C@@H](C)c3cccc4c3ncc3[nH]n(C)c(=O)c34)ncn2)cn1 [Compound 994] | < 30
CNC(=O)c1ccnc2c([C@H](C)CNc3cc(-c4cnc(CC5CCN(CC(F)F)CC5)nc4)ncn3)cccc12 [Compound 1045] | < 30
CNC(=O)c1cc(C(F)(F)F)nc2c([C@H](C)CNc3cc(-c4ccc(C)nc4)ncn3)cccc12 [Compound 985] | < 30
CNC(=O)c1c(F)cnc2c([C@H](C)CNc3cc(-c4ccc(NC5CCN(C(C)=O)CC5)nc4)ncn3)cccc12 [Compound 1065] | < 30
CNC(=O)c1ccnc2c([C@H](C)CNc3cc(-c4cnc(NCCNC(C)=O)nc4)ncn3)cccc12 [Compound 1051] | < 30
CNC(=O)c1ccnc2c([C@H](C)CNc3cc(-c4cnc(NC5CC5)nc4)ncn3)ccc(F)c12 [Compound 1028] | < 30
CNC(=O)c1ncnc2c([C@H](C)CNc3cc(-c4ccc(C(=O)NCCC#N)cc4)ncn3)cccc12 [Compound 1017] | < 30
CNC(=O)c1ccnc2c([C@H](C)CNc3cc(-c4ccc(CC5CCN(C)CC5)nc4)ncn3)cccc12 [Compound 989] | < 30
CNC(=O)c1c(F)cnc2c([C@H](C)CNc3cc(-c4cnc5c(c4)COC5(C)C)ncn3)cccc12 [Compound 987] | < 30
CNC(=O)c1ccnc2c([C@H](C)CNc3cc(-c4ccc(C5(O)COC5)nc4)ncn3)ccc(F)c12 [Compound 1069] | < 30
CNC(=O)c1ccnc2c([C@H](C)CNc3cc(-c4cnc(NCC(=O)N(C)C)nc4)ncn3)cccc12 [Compound 1077] | < 30
CNC(=O)c1c(F)cnc2c([C@H](C)CNc3cc(-c4ccc(CC5CCN(CC(F)(F)F)CC5)nc4)ncn3)cccc12 [Compound 1021] | < 30
CNC(=O)c1ccnc2c([C@H](C)CNc3cc(-c4cc(C)nc(C)c4)ncn3)cccc12 [Compound 820] | < 30
CNC(=O)c1ccnc2c([C@H](C)CNc3cc(-c4cnc(N(C)C5CCN(CC(F)(F)F)CC5)nc4)ncn3)cccc12 [Compound 1061] | < 30
COc1ccccc1[C@H](C)CNc1cc(-c2cnc3[nH]ncc3c2)ncn1 [Compound 150] | < 30
CNC(=O)c1c(F)cnc2c([C@H](C)CNc3cc(-c4ccc(CC5CCN(C(C)=O)CC5)nc4)ncn3)cccc12 [Compound 1008] | < 30
CNC(=O)c1c(F)cnc2c([C@H](C)CNc3cc(-c4cnc(NC5CC5)nc4)ncn3)cccc12 [Compound 1032] | < 30
CNC(=O)c1ccnc2c([C@H](C)CNc3cc(-c4cnc(NCCNC(C)=O)nc4)ncn3)ccc(F)c12 [Compound 1053] | < 30
CNC(=O)c1ccnc2c([C@H](C)CNc3cc(-c4ccc(CC5CCN(C(C)=O)CC5)nc4)ncn3)ccc(F)c12 [Compound 1018] | < 30
[2H]C([2H])([2H])C([2H])([2H])c1ncc(-c2cc(NC[C@@H](C)c3cccc4c(C(=O)NC)c(F)cnc34)ncn2)cn1 [Compound 1004] | < 30
COc1ccccc1[C@H](C)CNc1cc(-c2ccc(NCC(O)CO)nc2)ncn1 (single isomer, unassigned) [Compound 200] | < 30
CNC(=O)c1ccnc2c([C@H](C)CNc3cc(-c4cnc(OC5CCN(C)CC5)nc4)ncn3)ccc(F)c12 [Compound 1073] | < 30
CNC(=O)c1ncnc2c([C@H](C)CNc3cc(-c4ccc(C#N)cc4)ncn3)cccc12 [Compound 1010] | < 30
CNC(=O)c1ccnc2c([C@H](C)CNc3cc(-c4cnc(N5CCN(CC(F)(F)F)CC5)nc4)ncn3)cccc12 [Compound 781] | < 30
Cc1ccc(-c2cc(NC[C@@H](C)c3cccc4c3ncc3c4c(=O)[nH]n3C)ncn2)cn1 [Compound 995] | < 30
CNC(=O)CNc1ncc(-c2cc(NC[C@@H](C)c3cccc4c(C(=O)NC)c(F)cnc34)ncn2)cn1 [Compound 1075] | < 30

Other lines, results leading:

Ki [nM] | SMILES
< 30 | CCOc1ncc(-c2cc(NC[C@@H](C)c3cccc4c(C(=O)NC)c(F)cnc34)ncn2)cn1 [Compound 1030]
< 30 | CNC(=O)c1c(F)cnc2c([C@H](C)CNc3cc(-c4cnc(NC5CCN(CC(F)(F)F)CC5)nc4)ncn3)cccc12 [Compound 1036]
< 30 | CNC(=O)c1ccnc2c([C@H](C)CNc3cc(-c4cnc(COC(C)C)nc4)ncn3)cccc12 [Compound 1014]
< 30 | Cc1ccc(-c2cc(NC[C@@H](C)c3cccc4c3ncc3[nH][nH]c(=O)c34)ncn2)cn1 [Compound 993]
< 30 | CNC(=O)c1ccnc2c([C@H](C)CNc3cc(-c4ccc(CC5CCN(C(C)=O)CC5)nc4)ncn3)cccc12 [Compound 1007]
< 30 | CNC(=O)c1ccnc2c([C@H](C)CNc3cc(-c4ccc(CC5CCN(CC(F)(F)F)CC5)nc4)ncn3)ccc(F)c12 [Compound 1022]
< 30 | CNC(=O)c1c(F)cnc2c([C@H](C)CNc3cc(-c4cnc(OC(C)(C)C)nc4)ncn3)cccc12 [Compound 997]
< 30 | CNC(=O)c1ccnc2c([C@H](C)CNc3cc(-c4cnc(NCC(F)(F)F)nc4)ncn3)cccc12 [Compound 1066]
< 30 | CNC(=O)c1ccnc2c([C@H](C)CNc3cc(-c4cnc(NC5CCN(CC(F)F)CC5)nc4)ncn3)cccc12 [Compound 1034]
< 30 | CNC(=O)c1c(F)cnc2c([C@H](C)CNc3cc(-c4cnc(NCCNC(C)=O)nc4)ncn3)cccc12 [Compound 1052]
< 30 | CCOc1ncc(-c2cc(NC[C@@H](C)c3cccc4c(C(=O)NC)ncnc34)ncn2)cn1 [Compound 1011]
< 30 | CNC(=O)c1ccnc2c([C@H](C)CNc3cc(-c4cnc(CC5CCN(CC(F)(F)F)CC5)nc4)ncn3)cccc12 [Compound 1047]
< 30 | CNC(=O)c1ccnc2c([C@H](C)CNc3cc(-c4cnc(OC5CCN(C(=O)OC(C)(C)C)C5)nc4)ncn3)cccc12 (stereo partly shown) [Compound 746]
< 30 | CNC(=O)c1ccnc2c([C@H](C)CNc3cc(-c4ccc(NC5CCN(CC(F)(F)F)CC5)nc4)ncn3)cccc12 [Compound 1085]
< 30 | CNC(=O)c1c(F)cnc2c([C@H](C)CNc3cc(-c4ccc(N(C)C5CCN(CC(F)(F)F)CC5)nc4)ncn3)cccc12 [Compound 1090]
< 30 | CNC(=O)c1ccnc2c([C@H](C)CNc3cc(-c4cnc(CC5CCN(C)CC5)nc4)ncn3)cccc12 [Compound 1001]
< 30 | CNC(=O)c1c(F)cnc2c([C@H](C)CNc3cc(-c4ccc(CC5CCN(C)CC5)nc4)ncn3)cccc12 [Compound 991]
< 30 | CNC(=O)c1ccnc2c([C@H](C)CNc3cc(-c4cnc(OC(C)(C)C)nc4)ncn3)cccc12 [Compound 996]
< 30 | CNC(=O)c1c(F)cnc2c([C@H](C)CNc3cc(-c4ccc(NC5CCN(C)CC5)nc4)ncn3)cccc12 [Compound 1063]
< 30 | CNC(=O)c1c(F)cnc2c([C@H](C)CNc3cc(-c4ccc(NC5CCN(CC(F)(F)F)CC5)nc4)ncn3)cccc12 [Compound 1086]
< 30 | CNC(=O)c1ccnc2c([C@H](C)CNc3cc(-c4ccc(NC5CCN(CC(F)F)CC5)nc4)ncn3)cccc12 [Compound 1083]
< 30 | CNC(=O)c1ncnc2c([C@H](C)CNc3cc(-c4ccc(F)nc4)ncn3)cccc12 [Compound 1006]
< 30 | Cc1ccc(-c2cc(NC[C@@H](C)c3ccnc4c3OCCO4)ncn2)cn1 (single isomer, unassigned) [Compound 443]

From patent publication US10442791B2, “DNA-PK inhibitors” (Vertex Pharmaceuticals Incorporated, priority 2012, dated 2019)
